Measurements: patent publication US20240262817A1, “QUINAZOLINE DERIVATIVES TARGETING R(CCUG) REPEATS IN MYOTONIC DYSTROPHY TYPE 2” (University of Florida Research Foundation, Incorporated, priority 2021, published 2024)

Assays:
r(CCUG)12 = test: Microscale thermophoresis (MST) affinity for r(CCUG)12; assay type: binding; conditions: read-out: Kd,app for r(CCUG)12
Description: (§1) Affinity measurements: Binding affinity measurements were performed via microscale thermophoresis (MST) on a Monolith NT.115 system (NanoTemperTechnologies) with Cy5-labeled (CCUG)12 (SEQ ID NO: 15) (5′-Cy5-GCG(CCUG)12CGC. SEQ ID NO:13; Dharmacon) and Cy5-labeled base pair control (BP; 5′-Cy5-GCG(CCUG)(GCAG)5CGC, SEQ ID NO:14; Dharmacon), which were deprotected according to the manufacturer's protocol and then desalted using a PD-10 column (GE LifeSciences) per the manufacturer's recommended procedure. RNA (5 nM) was prepared in 8 mM Na2HPO4, 185 mM NaCl, 1 mM EDTA and folded by heating at 60° C. for 5 min and slowly cooling to room temperature. Compound 1:1 dilution was prepared using 1×MST Buffer (8 mM Na2HPO4, 185 mM NaCl, 1 mM EDTA) and 0.1% (v/v) Tween-20 was added. After cooling the RNA solution was added to the compound solution (0.05% (v/v) Tween-20 final concentration). Samples were incubated for 30 min at room temperature and then loaded into standard capillaries (NanoTemper Technologies). […] Fluorescence was detected using excitation wavelengths of 605-645 nm and emission wavelengths of 680-685 nm. The resulting data were analyzed by thermophoresis analysis and fitted using a quadratic binding equation in the MST analysis software (NanoTemper Technologies). Dissociation constants were then determined using equation 3. […]

[1] = system: DM2 patient-derived fibroblasts; test: Cell viability by CellTiter-Glo; assay type: cell-based
Description: (§2) Cell lines and cell culture: Compounds were tested in two cell lines: (i) DM2 patient-derived fibroblasts (generous gift from University of Florida, Center for NeuroGenetics) and (ii) fibroblasts from a healthy donor (wild-type; WT GM07492; Coriell Institute). Cells were maintained at 37° ° C. with 5% CO2. DM2 fibroblasts were cultured in DMEM/high glucose (HyClone) supplemented with 20% FBS (Sigma) and 1% Antibiotic-Antimycotic solution (Corning). Wild-type fibroblasts were cultured in MEM (Corning) supplemented with 10% FBS, 1% Glutagro (Corning), and 1% Antibiotic-Antimycotic solution.
Evaluation of cell viability: Compound toxicity in DM2 fibroblasts was evaluated using a CellTiter-Glo Kit (Promega) as described in the manufacturer's protocol. Briefly, after 48 h treatment in 96-wells plates, 100 μL of the CellTiter-Glo reagent was added to each well. The plate was then incubated at room temperature for 10 min, and luminescence was measured using BioTek FLX-800 luminescence plate reader (n=6 replicates; 1 independent experiment).

[2] = target: base-paired RNA that does not contain internal loops; test: Microscale thermophoresis (MST) affinity for base pair control RNA; assay type: binding
Description: as §1

[3] = system: r(CCUG)exp-MBNL1 nuclear foci in DM2 patient-derived fibroblasts; test: Nuclear foci by RNA FISH and MBNL1 immunofluorescence; assay type: cell-based; set-up: dose or concentration left out as unconfirmed
Description: as §2
Evaluation of nuclear foci via RNA fluorescence in situ hybridization (FISH): RNA FISH was used to determine the small molecules' effects on the number of nuclear foci as previously described.^10 The number of foci were counted in 40 nuclei/replicate (120 total nuclei counted); n=3 replicates; 1 independent experiment.

Cc1ccc2nc(Nc3ccc4nc(C)sc4c3)nc(NCCCO)c2c1 [Compound 63, 3-((6-methyl-2-((2-methylbenzo[d]thiazol-6-yl)amino)quinazolin-4-yl)amino)propan-1-ol]
Kd (r(CCUG)12): 192 ± 20 nM
toxicity as stated in legend of FIG. 3C ([1]; DM2 fibroblasts): non-toxic
toxicity in DM2 patient-derived fibroblasts ([1]; at 5 μM): no toxicity
Kd [2]: > 20 µM
binding to base-paired RNA that does not contain internal loops [2]: no binding was observed
reduction of number of nuclear foci per cell ([3]; 63 vs untreated): ~30%
number of r(CCUG)exp-MBNL1 nuclear foci per cell ([3]; untreated 7±1): 5±0.5
